Reference: the supplement of paper PMC8967900

Experiments:
Experiment in all cases: selective drug sensitivity score (sDSS, relative to normal bone marrow) (sDSS (score)); higher = more potent and effective on the cell line relative to normal bone marrow cells
Details in all cases: 72 h
KASUMI-9 = system: KASUMI-9
TMD5 = system: TMD5
COG-LL-317 = system: COG-LL-317
PF-382 = system: PF-382
ALL-SIL = system: ALL-SIL
RPMI-8402 = system: RPMI-8402
CCRF-CEM = system: CCRF-CEM
COG-LL-332h = system: COG-LL-332h
P30-OHKUBO = system: P30-OHKUBO
CCRF-HSB2 = system: CCRF-HSB2
COG-LL-402h = system: COG-LL-402h
NALM-6 = system: NALM-6
P12-ICHIKAWA = system: P12-ICHIKAWA
LC4-1 = system: LC4-1
JURKAT = system: JURKAT
COG-LL-394h = system: COG-LL-394h
KARPAS-45 = system: KARPAS-45
COG-LL-355h = system: COG-LL-355h
PEER = system: PEER
TANOUE = system: TANOUE
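Further: ALL cell lines in 384-well plates, five doses spanning 10,000-fold, each plate scaled between vehicle and 100 µmol/L benzalkonium chloride controls, sDSS an adapted area-under-curve metric.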

Row | Compound | selective drug sensitivity score (KASUMI-9) | selective drug sensitivity score (TMD5) | selective drug sensitivity score (COG-LL-317) | selective drug sensitivity score (PF-382) | selective drug sensitivity score (ALL-SIL) | selective drug sensitivity score (RPMI-8402) | selective drug sensitivity score (CCRF-CEM) | selective drug sensitivity score (COG-LL-332h) | selective drug sensitivity score (P30-OHKUBO) | selective drug sensitivity score (CCRF-HSB2) | selective drug sensitivity score (COG-LL-402h) | selective drug sensitivity score (NALM-6) | selective drug sensitivity score (P12-ICHIKAWA) | selective drug sensitivity score (LC4-1) | selective drug sensitivity score (JURKAT) | selective drug sensitivity score (COG-LL-394h) | selective drug sensitivity score (KARPAS-45) | selective drug sensitivity score (COG-LL-355h) | selective drug sensitivity score (PEER) | selective drug sensitivity score (TANOUE)
1 | C[C@@H]1CCN(C(=O)CC#N)C[C@@H]1N(C)c1ncnc2[nH]ccc12 [Tofacitinib] (top concentration 5000 nM) | -7.86 | -7.86 | -7.86 | -7.36 | -7.86 | -7.86 | -7.86 | -7.86 | -6.66 | -3.56 | -7.86 | -7.86 | -7.86 | -7.86 | -7.86 | -7.86 | -7.86 | 0.44 | -4.66 | -7.86
2 | COc1cc2c(NC3CCN(C(C)C)CC3)nc(C3CCCCC3)nc2cc1OCCCN1CCCC1 [UNC0638] (top concentration 10000 nM) | -1.64 | -4.84 | 0.06 | -0.54 | 2.16 | -0.04 | 0.46 | 0.66 | 0.86 | 0.16 | 1.16 | -3.64 | -2.84 | -2.84 | -2.64 | 0.16 | 2.36 | 1.86 | 1.26 | -5.14
3 | CCCCNc1ncc(C(=O)NCc2ccc(-n3ccnc3)cc2)c(NC2CCC(O)CC2)n1 (stereo not given) [UNC2881] (top concentration 2500 nM) | 0 | 0.5 | 0.6 | 0 | 2.8 | 0 | 0 | 0.1 | 0 | 0 | 0 | 0 | 0 | 0 | 0 | 0 | 0.5 | 0 | 1.5 | 0
4 | CC[C@@H]1CN(C(=O)NCC(F)(F)F)C[C@@H]1c1cnc2cnc3[nH]ccc3n12 [Upadacitinib] (top concentration 10000 nM) | -2.76 | -7.16 | -7.16 | -6.06 | -7.16 | -7.16 | -4.66 | -6.66 | -3.16 | -5.06 | -7.16 | -5.96 | -7.16 | -5.16 | -6.86 | -7.16 | -7.16 | -7.16 | -6.66 | -6.86
5 | O=C(O)CC1CC(c2ccccc2)=NO1 (stereo not given) [VGX-1027] (top concentration 10000 nM) | -0.04 | -0.04 | -0.04 | -0.04 | -0.04 | -0.04 | -0.04 | -0.04 | -0.04 | -0.04 | -0.04 | -0.04 | -0.04 | -0.04 | -0.04 | -0.04 | -0.04 | -0.04 | -0.04 | -0.04
6 | CCCCC(=O)OCC(=O)[C@]1(O)Cc2c(O)c3c(c(O)c2[C@@H](O[C@H]2C[C@H](NC(=O)C(F)(F)F)[C@H](O)[C@H](C)O2)C1)C(=O)c1c(OC)cccc1C3=O [Valrubicin] (top concentration 5000 nM) | 5.68 | 4.18 | 17 | 1.48 | -0.72 | 6.88 | 10.9 | 11.2 | 5.98 | 15.6 | 13.8 | 3.18 | 8.48 | 2.98 | 4.98 | 7.78 | -2.62 | 2.98 | -9.32 | -12.7
7 | CCc1c(C(=O)C(N)=O)c2c(OCC(=O)O)cccc2n1Cc1ccccc1 [Varespladib] (top concentration 10000 nM) | -0.84 | -0.84 | -0.74 | -0.84 | -0.84 | -0.84 | -0.84 | -0.64 | -0.84 | 0.36 | 6.36 | -0.84 | -0.84 | -0.84 | -0.74 | -0.84 | -0.84 | -0.84 | -0.84 | -0.84
8 | CC1(C)CCC(CN2CCN(c3ccc(C(=O)NS(=O)(=O)c4ccc(NCC5CCOCC5)c([N+](=O)[O-])c4)c(Oc4cnc5[nH]ccc5c4)c3)CC2)=C(c2ccc(Cl)cc2)C1 [Venetoclax] (top concentration 1000 nM) | 25.4 | 20.8 | 2.2 | -4.1 | 16.5 | -4.4 | -1.8 | -3.3 | 21 | -2.9 | 14.1 | 4.4 | -2.4 | 31.8 | -3.3 | 4.5 | 9.5 | 31.2 | -2.9 | -4.4
9 | CCCCOc1nc(N)c2c(n1)N(Cc1cccc(CN3CCCC3)c1)CC(=O)N2 [Vesatolimod] (top concentration 10000 nM) | -2.92 | -3.52 | -2.92 | -3.52 | -3.52 | -3.52 | -3.52 | -3.52 | -3.52 | -3.52 | -3.52 | -3.52 | -3.52 | -3.52 | -3.42 | -3.32 | -3.52 | 0.28 | -3.52 | -3.32
